Values belong to the compound of their own block, whether it stands above or below them.
Tests used:
[1] = test system: HDAC6 (substrate acetyl-α-tubulin, AcTub); test: In cellulo selectivity, western blot of acetyl-α-tubulin in U937 cells; type: cell-based; details: SAHA 5 µM, 1e 10–40 µM, compared to DMSO control
[2] = test system: Class I HDAC (HDAC1, 2, and 3) (substrate acetyl-histone 3, AcH3); test: In cellulo selectivity, western blot of acetyl-histone H3 in U937 cells; type: cell-based; details: SAHA 5 µM, 1e 10–40 µM, compared to DMSO control
HDAC6 = molecular target: T1, HDAC6 (Homo sapiens, UniProt Q9UBN7); test: ELISA-based HDAC activity assay, HDAC6; type: biochemical; details: from IC50 values (Tables 2 and S6)
T1 sequence (Q9UBN7 1-1215): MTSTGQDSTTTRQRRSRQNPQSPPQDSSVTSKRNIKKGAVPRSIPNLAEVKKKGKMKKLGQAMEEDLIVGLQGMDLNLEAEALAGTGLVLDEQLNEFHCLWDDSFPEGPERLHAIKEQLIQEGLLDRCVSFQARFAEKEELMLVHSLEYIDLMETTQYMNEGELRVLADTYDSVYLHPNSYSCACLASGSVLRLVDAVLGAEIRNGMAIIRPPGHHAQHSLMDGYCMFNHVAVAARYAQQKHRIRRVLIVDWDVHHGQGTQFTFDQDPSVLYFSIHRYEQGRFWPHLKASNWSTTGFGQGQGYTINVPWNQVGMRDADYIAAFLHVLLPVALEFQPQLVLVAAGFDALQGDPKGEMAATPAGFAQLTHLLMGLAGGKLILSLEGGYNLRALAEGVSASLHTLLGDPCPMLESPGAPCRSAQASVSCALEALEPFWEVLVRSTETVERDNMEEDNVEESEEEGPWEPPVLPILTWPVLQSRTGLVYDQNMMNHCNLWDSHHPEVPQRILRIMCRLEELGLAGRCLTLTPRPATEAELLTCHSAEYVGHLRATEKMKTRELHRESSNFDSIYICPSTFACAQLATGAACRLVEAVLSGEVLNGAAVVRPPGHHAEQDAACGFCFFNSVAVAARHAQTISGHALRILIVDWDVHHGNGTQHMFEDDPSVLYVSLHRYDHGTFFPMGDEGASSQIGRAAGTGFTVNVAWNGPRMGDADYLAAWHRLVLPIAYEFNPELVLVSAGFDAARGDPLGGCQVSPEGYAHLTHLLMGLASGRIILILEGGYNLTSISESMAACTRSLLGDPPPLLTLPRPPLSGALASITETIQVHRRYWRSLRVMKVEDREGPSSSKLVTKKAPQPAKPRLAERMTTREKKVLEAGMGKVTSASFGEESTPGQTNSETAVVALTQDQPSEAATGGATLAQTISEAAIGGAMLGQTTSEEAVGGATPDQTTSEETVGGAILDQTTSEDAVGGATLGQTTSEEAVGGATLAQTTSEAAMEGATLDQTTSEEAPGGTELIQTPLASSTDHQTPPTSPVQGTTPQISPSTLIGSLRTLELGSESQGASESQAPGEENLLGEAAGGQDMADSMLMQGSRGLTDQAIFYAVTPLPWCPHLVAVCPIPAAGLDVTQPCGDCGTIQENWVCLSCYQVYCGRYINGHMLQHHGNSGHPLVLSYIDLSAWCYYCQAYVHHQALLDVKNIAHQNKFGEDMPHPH

HDAC isoforms = details: cited from earlier work; for isoform selectivity: prior work
[3] = test system: HeLa cell lysates as the source of all HDAC proteins; test: Global HDAC inhibition with HeLa cell lysates; type: biochemical; details: mean and standard error of at least three independent trials

Structure (SMILES): O=C(CCCC(CCC(=O)Nc1ccccc1)Cc1ccccc1)NO (stereo not shown) [Compound 1e, C5-benzyl SAHA]
levels of acetyl-α-tubulin (AcTub) [1]: dose dependent selective increase
levels of acetyl-histone H3 (AcH3) [2]: increased levels

selectivity for HDAC6 and HDAC8 over HDAC1, 2, and 3 (HDAC6): 3- to 5 fold
Structure (SMILES): CCCCC(CCCC(=O)NO)CCC(=O)Nc1ccccc1 (stereo not shown) [Compound 1b, C5-n-butyl SAHA]

Structure (SMILES): CCCCCCC(CCCCCC(=O)Nc1ccccc1)C(=O)NO (stereo not shown) [C2-hexyl SAHA]
selectivity for HDAC6 and 8 over HDAC1, 2, and 3 (HDAC isoforms; previously reported): 49- to 300 fold
isoform selectivity (HDAC isoforms): dual HDAC6/8 selectivity
IC50 (HDAC isoforms; read-out: IC50 values against HDAC6 and 8, previously reported): 600 to 2000 nM

selectivity for HDAC6 and HDAC8 over HDAC1, 2, and 3 (HDAC6): 5- to 7 fold
Structure (SMILES): CCCCCCC(CCCC(=O)NO)CCC(=O)Nc1ccccc1 (stereo not shown) [Compound 1c, C5-n-hexyl SAHA]

Structure (SMILES): CCCCC(CCCCC(=O)NO)CC(=O)Nc1ccccc1 (stereo not shown) [C6-butyl SAHA]
isoform selectivity (HDAC isoforms): inhibited HDAC1 and 6 over HDAC3

IC50 [3]: 100 ± 10 nM
Structure (SMILES): CC(CCCC(=O)NO)CCC(=O)Nc1ccccc1 (stereo not shown) [Compound 1a, C5-methyl SAHA]

Structure (SMILES): CCC(CCCCC(=O)Nc1ccccc1)CC(=O)NO (stereo not shown) [C3-ethyl SAHA]
isoform selectivity (HDAC isoforms): HDAC6 selectivity

Reference: paper PMC5747257 (Bioorganic & medicinal chemistry letters, 2017)
